From ChEMBL document CHEMBL1759972, “Phenoxyacetic acids as PPARδ partial agonists: synthesis, optimization, and in vivo efficacy” (Bioorg Med Chem Lett, 2011)

What was measured:
[1] = target: T1, Peroxisome proliferator-activated receptor alpha (Homo sapiens, UniProt Q07869); assay: Displacement of [3H]GW 2433 from human PPARalpha by scintillation proximity assay
T1 sequence (Q07869 whole entry): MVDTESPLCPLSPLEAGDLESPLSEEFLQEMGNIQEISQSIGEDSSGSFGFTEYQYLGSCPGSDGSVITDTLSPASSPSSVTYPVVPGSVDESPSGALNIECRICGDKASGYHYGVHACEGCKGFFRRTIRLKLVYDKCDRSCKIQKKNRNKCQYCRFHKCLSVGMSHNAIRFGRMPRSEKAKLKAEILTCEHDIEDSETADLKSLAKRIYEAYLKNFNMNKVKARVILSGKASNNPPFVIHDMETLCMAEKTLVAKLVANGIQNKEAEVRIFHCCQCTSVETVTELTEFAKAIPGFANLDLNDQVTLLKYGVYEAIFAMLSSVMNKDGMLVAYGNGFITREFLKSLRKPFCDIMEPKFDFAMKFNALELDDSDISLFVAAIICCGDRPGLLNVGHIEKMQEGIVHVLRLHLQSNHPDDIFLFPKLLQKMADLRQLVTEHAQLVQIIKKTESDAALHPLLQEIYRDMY

[2] = target: T2, Peroxisome proliferator-activated receptor delta (Homo sapiens, UniProt Q03181)
T2 sequence (Q03181 whole entry): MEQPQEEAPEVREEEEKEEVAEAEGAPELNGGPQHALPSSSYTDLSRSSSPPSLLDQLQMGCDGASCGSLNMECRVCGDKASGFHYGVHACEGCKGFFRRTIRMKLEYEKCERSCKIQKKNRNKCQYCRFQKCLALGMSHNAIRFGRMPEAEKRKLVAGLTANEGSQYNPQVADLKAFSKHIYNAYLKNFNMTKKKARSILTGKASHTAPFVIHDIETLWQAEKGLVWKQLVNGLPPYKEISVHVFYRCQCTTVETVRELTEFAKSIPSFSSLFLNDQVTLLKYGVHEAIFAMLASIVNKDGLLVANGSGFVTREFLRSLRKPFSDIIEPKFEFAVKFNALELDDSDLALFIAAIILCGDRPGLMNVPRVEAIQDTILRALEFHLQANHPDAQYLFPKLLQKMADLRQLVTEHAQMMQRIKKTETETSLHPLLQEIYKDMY
Description: Displacement of [3H]GW 2433 from human PPARdelta by scintillation proximity assay

[3] = target: T2, Peroxisome proliferator-activated receptor delta; remark: listed apart in the source
Description: Partial agonist activity at human PPARdelta expressed in african green monkey CV1 cells transfected with Gal4 assessed as beta-galactosidase activity by transactivation assay

[4] = target: T3, Peroxisome proliferator-activated receptor gamma (Homo sapiens, UniProt P37231)
T3 sequence (P37231 whole entry): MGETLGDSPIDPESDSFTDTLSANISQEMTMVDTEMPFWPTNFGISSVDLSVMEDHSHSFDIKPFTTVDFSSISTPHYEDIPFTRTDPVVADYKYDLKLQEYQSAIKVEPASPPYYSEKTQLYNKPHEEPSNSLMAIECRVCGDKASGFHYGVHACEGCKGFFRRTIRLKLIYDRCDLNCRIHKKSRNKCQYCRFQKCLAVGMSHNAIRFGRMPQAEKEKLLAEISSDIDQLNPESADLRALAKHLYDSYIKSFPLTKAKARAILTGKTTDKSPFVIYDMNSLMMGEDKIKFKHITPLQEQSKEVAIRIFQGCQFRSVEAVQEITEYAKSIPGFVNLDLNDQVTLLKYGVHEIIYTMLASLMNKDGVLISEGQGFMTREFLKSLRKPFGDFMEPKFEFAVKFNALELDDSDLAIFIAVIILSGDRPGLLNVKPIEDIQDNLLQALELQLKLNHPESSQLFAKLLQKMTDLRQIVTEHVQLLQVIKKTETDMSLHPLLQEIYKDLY
Description: Displacement of [3H]GW 2433 from human PPARgamma by scintillation proximity assay

| IC50 [1] | IC50 [2] | EC50 [3] | IC50 [4] | SMILES |
| --- | --- | --- | --- | --- |
| 20000 nM | 126 nM | 126 nM |  | CCCCN(c1cccc(-c2ccc(Cl)c(Cl)c2)c1C)S(=O)(=O)c1ccc(OC(C)C(=O)O)c(C)c1C (stereo not drawn) |
| 15800 nM | 15.8 nM |  |  | CCCCN(c1cccc(-c2ccc(C(F)(F)F)cc2)c1C)S(=O)(=O)c1ccc(OC(C)C(=O)O)c(C)c1C (stereo not drawn) |
| 12600 nM | 1580 nM | 2000 nM |  | CCCCN(c1cccc(-c2ccccc2Cl)c1C)S(=O)(=O)c1ccc(OC(C)C(=O)O)c(C)c1C (stereo not drawn) |
| 10000 nM | 1580 nM | 794 nM | 6310 nM | CCCCN(c1cc(-c2ccc(Cl)cc2)ccc1C)S(=O)(=O)c1ccc(OC(C)C(=O)O)c(C)c1C (stereo not drawn) |
| 12600 nM | 7.94 nM | 10 nM |  | CCCCN(c1cccc(-c2ccc(Cl)cc2)c1Cl)S(=O)(=O)c1ccc(OC(C)C(=O)O)c(C)c1C (stereo not drawn) |
| 15800 nM | 1260 nM | 158 nM | 5010 nM | Cc1cc(S(=O)(=O)N(CCC(C)C)c2cccc(-c3ccc(C(F)(F)F)cc3)c2)ccc1OCC(=O)O |
| 15800 nM | 63.1 nM | 126 nM |  | CCCCN(c1cccc(-c2ccc(Cl)cc2)c1C)S(=O)(=O)c1ccc(OC(CC)C(=O)O)c(C)c1C (stereo not drawn) |
| 20000 nM | 25.1 nM | 12.6 nM |  | CCCCN(c1cccc(-c2ccc(Cl)cc2)c1C)S(=O)(=O)c1ccc(O[C@H](C)C(=O)O)c(C)c1C |
| 15800 nM | 794 nM | 794 nM |  | Cc1c(-c2ccc(Cl)cc2)cccc1N(CC1CC1)S(=O)(=O)c1ccc(OC(C)C(=O)O)c(C)c1C (stereo not drawn) |
| 10000 nM | 5010 nM | 3160 nM | 7940 nM | CCCCN(c1cc(-c2ccc(Cl)cc2)c(F)cc1C)S(=O)(=O)c1ccc(OC(C)C(=O)O)c(C)c1C (stereo not drawn) |
| 10000 nM | 158 nM | > 10000 nM |  | CCCCN(c1cccc(-c2ccc(Cl)cc2)c1C)S(=O)(=O)c1ccc(OC(CCC)C(=O)O)c(C)c1C (stereo not drawn) |
| 10000 nM | 158 nM | > 10000 nM |  | CCCCC(Oc1ccc(S(=O)(=O)N(CCCC)c2cccc(-c3ccc(Cl)cc3)c2C)c(C)c1C)C(=O)O (stereo not drawn) |
| 12600 nM | 1000 nM | 501 nM |  | Cc1c(-c2ccc(Cl)cc2)cccc1N(CC1CCC1)S(=O)(=O)c1ccc(OC(C)C(=O)O)c(C)c1C (stereo not drawn) |
| > 20000 nM | 501 nM | 501 nM |  | COCCN(c1cccc(-c2ccc(Cl)cc2)c1C)S(=O)(=O)c1ccc(OC(C)C(=O)O)c(C)c1C (stereo not drawn) |
| 20000 nM | 1260 nM | 2000 nM |  | Cc1c(-c2ccc(Cl)cc2)cccc1N(CCCC(F)(F)F)S(=O)(=O)c1ccc(OC(C)C(=O)O)c(C)c1C (stereo not drawn) |
| 15800 nM | 631 nM | 316 nM |  | CCCCN(c1cccc(-c2ccc(Cl)cc2)c1C)S(=O)(=O)c1ccc(O[C@@H](C)C(=O)O)c(C)c1C |
| 7940 nM | 631 nM | 501 nM |  | CCCCN(c1cccc(-c2cccc(Cl)c2)c1C)S(=O)(=O)c1ccc(OC(C)C(=O)O)c(C)c1C (stereo not drawn) |
| 20000 nM | 398 nM | 126 nM | 3160 nM | CCCCN(c1ccc(C)c(-c2ccc(Cl)cc2)c1)S(=O)(=O)c1ccc(OC(C)C(=O)O)c(C)c1C (stereo not drawn) |
| 15800 nM | 794 nM | 398 nM |  | CCCCCN(c1cccc(-c2ccc(Cl)cc2)c1C)S(=O)(=O)c1ccc(OC(C)C(=O)O)c(C)c1C (stereo not drawn) |

| IC50 [1] | IC50 [2] | EC50 [3] | IC50 [4] | SMILES |
| --- | --- | --- | --- | --- |
| 15800 nM | 79.4 nM | 31.6 nM |  | CCCCN(c1cccc(-c2ccc(C)cc2)c1C)S(=O)(=O)c1ccc(OC(C)C(=O)O)c(C)c1C (stereo not drawn) |
| 20000 nM | 200 nM | 39.8 nM | 2000 nM | CCCCN(c1ccc(F)c(-c2ccc(Cl)cc2)c1)S(=O)(=O)c1ccc(OC(C)C(=O)O)c(C)c1C (stereo not drawn) |
| 12600 nM | 251 nM | 398 nM |  | CCCCN(c1cccc(-c2ccc(Cl)cc2)c1C)S(=O)(=O)c1ccc(OC(C)C(=O)O)c(F)c1Cl (stereo not drawn) |
| 10000 nM | 3160 nM | 1260 nM | 1580 nM | CCCCN(c1cc(-c2ccc(Cl)cc2)c(F)cc1F)S(=O)(=O)c1ccc(OC(C)C(=O)O)c(C)c1C (stereo not drawn) |
| 15800 nM | 100 nM | 39.8 nM |  | CCCCN(c1cccc(-c2ccc(OC)cc2)c1C)S(=O)(=O)c1ccc(OC(C)C(=O)O)c(C)c1C (stereo not drawn) |
| 20000 nM | 10000 nM | > 10000 nM | 7940 nM | CCCCN(c1c(C)cc(C)c(-c2ccc(Cl)cc2)c1C)S(=O)(=O)c1ccc(OC(C)C(=O)O)c(C)c1C (stereo not drawn) |
| 10000 nM | 631 nM |  |  | CCCCN(c1cccc(-c2ccc(Cl)cc2)c1C)S(=O)(=O)c1ccc(OC(C)C(=O)O)c(F)c1F (stereo not drawn) |
| 20000 nM | 126 nM | 79.4 nM |  | CCCN(c1cccc(-c2ccc(Cl)cc2)c1C)S(=O)(=O)c1ccc(OC(C)C(=O)O)c(C)c1C (stereo not drawn) |
| > 25100 nM | 5010 nM | > 10000 nM |  | CCCCN(c1cccc(-c2ccc(Cl)cc2)c1C)S(=O)(=O)c1ccc(OC(C)C(=O)O)c(OC)c1OC (stereo not drawn) |
| 15800 nM | 158 nM | 316 nM |  | CCCCN(c1cccc(-c2ccc(Cl)cc2)c1C)S(=O)(=O)c1ccc(OC(C)C(=O)O)c(OC)c1Cl (stereo not drawn) |
| 12600 nM | 63.1 nM | 100 nM | 5010 nM | CCCCN(c1cc(-c2ccc(Cl)cc2)cc(C(F)(F)F)c1)S(=O)(=O)c1ccc(OC(C)C(=O)O)c(C)c1C (stereo not drawn) |
| 15800 nM |  |  |  | CCCCN(c1cccc(-c2ccc(Cl)cc2)c1C)S(=O)(=O)c1ccc(OC(C)C(=O)O)c(F)c1OC (stereo not drawn) |
| 10000 nM | 79.4 nM | 39.8 nM |  | CCCCN(c1cccc(-c2ccc(OC(F)(F)F)cc2)c1C)S(=O)(=O)c1ccc(OC(C)C(=O)O)c(C)c1C (stereo not drawn) |
| 10000 nM | 79.4 nM | 63.1 nM |  | CCCCN(c1cccc(-c2ccc(Cl)cc2)c1C)S(=O)(=O)c1ccc(OC(C)C(=O)O)c(Cl)c1Cl (stereo not drawn) |
| 6310 nM | 12.6 nM | 2 nM | 2510 nM | CCCCN(c1cccc(-c2ccc(Cl)cc2)c1C)S(=O)(=O)c1ccc(OCC(=O)O)c(C)c1C |
| 15800 nM | 15.8 nM | 15.8 nM | 7940 nM | CCCCN(c1cccc(-c2ccc(Cl)cc2)c1C)S(=O)(=O)c1ccc(OC(C)C(=O)O)c(C2CCCCC2)c1 (stereo not drawn) |
| 12600 nM | 25.1 nM | 20 nM |  | CCCCN(c1cccc(-c2ccc(Cl)cc2)c1OC)S(=O)(=O)c1ccc(OC(C)C(=O)O)c(C)c1C (stereo not drawn) |
| 12600 nM | 3160 nM | 1000 nM | 10000 nM | CCCCN(c1cc(-c2ccc(Cl)cc2)ccc1OC(F)(F)F)S(=O)(=O)c1ccc(OC(C)C(=O)O)c(C)c1C (stereo not drawn) |
